Values after ≈ are worked out from the molar mass of the structure shown.
How the values were obtained:
[1] = test system: Staphylococcus aureus; test: Antibacterial activity against vancomycin intermediate susceptibility Staphylococcus aureus Mu50 assessed as inhibition of growth visually by CLSI method; assay type: functional
[2] = test system: Pseudomonas aeruginosa; test: Antimicrobial activity against Pseudomonas aeruginosa ATCC 27853 assessed as growth inhibition incubated for 18 hrs; assay type: functional
[3] = test system: Clostridioides difficile; test: Antibacterial activity against Clostridioides difficile ATCC 700057 assessed as inhibition of growth visually preincubated for 2 to 4 hrs measured after 48 hrs by CLSI method; assay type: functional; conditions: time hrs <=52
[4] = test system: Escherichia coli; test: Antibacterial activity against Escherichia coli ATCC 10418 assessed as inhibition of growth visually by CLSI method; assay type: functional
[5] = test system: Staphylococcus aureus; test: Antibacterial activity against methicillin-resistant Staphylococcus aureus NCTC 10442 assessed as inhibition of growth visually by CLSI method; assay type: functional
[6] = test system: Streptococcus pneumoniae; test: Antibacterial activity against Streptococcus pneumoniae ATCC 49619 assessed as inhibition of growth visually by CLSI method; assay type: functional
[7] = test system: Klebsiella pneumoniae; test: Antimicrobial activity against multidrug-resistant Klebsiella pneumoniae ATCC 700603 assessed as growth inhibition incubated for 18 hrs; assay type: functional
[8] = Cytotoxicity against human HEK-293 cells incubated for 23 hrs by CO-ADD method; assay type: cell-based, HEK293
[9] = test system: Cryptococcus neoformans; test: Antifungal activity against Cryptococcus neoformans H99 ATCC 208821 assessed as growth inhibition incubated for 36 hrs; assay type: functional; conditions: var. grubii H99 ATCC 208821
[10] = Hemolytic activity in human RBC assessed as hemolysis incubated for 1 hr by CO-ADD method; assay type: ADME, cell-based, Erythrocyte; conditions: red blood cells (erythrocytes)
[11] = test system: Staphylococcus aureus; test: Antibacterial activity against Staphylococcus aureus ATCC 29213 assessed as inhibition of growth visually by CLSI method; assay type: functional
[12] = test system: Enterococcus faecalis; test: Antibacterial activity against vancomycin-resistant Enterococcus faecalis ATCC 51299 assessed as inhibition of growth visually by CLSI method; assay type: functional
[13] = Hemolytic activity in sheep RBC assessed as hemolysis at 50 microg/ml incubated for 2 hrs; assay type: ADME, cell-based, Ovis aries, Erythrocyte; conditions: red blood cells (erythrocytes), at 50 µg/mL, read-out: Activity
[14] = test system: Candida albicans; test: Antifungal activity against Candida albicans ATCC 90028 assessed as growth inhibition incubated for 36 hrs; assay type: functional; conditions: 28A ATCC 90028
[15] = test system: Clostridioides difficile; test: Antibacterial activity against Clostridioides difficile NSW 132 (RT027) assessed as inhibition of growth visually preincubated for 2 to 4 hrs measured after 48 hrs by CLSI method; assay type: functional; conditions: time hrs <=52
[16] = Hemolytic activity in human RBC assessed as maximal hemolysis at <= 32 ug/ml incubated for 1 hr by CO-ADD method; assay type: cell-based, Erythrocyte; conditions: red blood cells (erythrocytes), dose <=32 µg/ml, read-out: Activity
[17] = test system: Enterococcus faecalis; test: Antibacterial activity against Enterococcus faecalis ATCC 29212 assessed as inhibition of growth visually by CLSI method; assay type: functional
[18] = test system: Escherichia coli; test: Antimicrobial activity against Escherichia coli ATCC 25922 assessed as growth inhibition incubated for 18 hrs; assay type: functional
[19] = test system: Staphylococcus aureus; test: Antimicrobial activity against methicillin resistant Staphylococcus aureus ATCC 43300 assessed as growth inhibition incubated for 18 hrs; assay type: functional
[20] = Hemolytic activity in sheep RBC assessed as hemolysis at 5 microg/ml incubated for 2 hrs by CO-ADD method; assay type: ADME, cell-based, Ovis aries, Erythrocyte; conditions: red blood cells (erythrocytes), at 5 µg/mL, read-out: Activity
[21] = test system: Acinetobacter baumannii; test: Antimicrobial activity against Acinetobacter baumannii ATCC 19606 assessed as growth inhibition incubated for 18 hrs; assay type: functional
[22] = Cytotoxicity against human HEK-293 cells assessed as maximal inhibition at <= 32 ug/ml incubated for 23 hrs by CO-ADD method; assay type: cell-based, HEK293; conditions: dose <=32 µg/ml, read-out: Imax

Compound	MIC [1] [µg/mL]	MIC [3] [µg/mL]	MIC [4] [µg/mL]	CC50 at 23 h [8] [µg/mL]	MIC80 [9] [µg/mL]	HC50 at 1 h [10] [µg/mL]	MIC [11] [µg/mL]	MIC [12] [µg/mL]	MIC80 [14] [µg/mL]	MIC [15] [µg/mL]	MIC [17] [µg/mL]	MIC80 [19] [µg/mL]	further results
CC(C)CCOc1cccc(-c2ccccc2OCc2cn(C[C@@H](CCCCN)NC(=O)[C@@H](CCCNC(=N)N)n3cc(CC4CCCCC4)nn3)nn2)c1.Cl.Cl	2	16	2	> 32	> 32	> 32	2	8	32	16	2	≤ 0.25	MIC80 [2]: 8 µg/mL; MIC [5]: 2 µg/mL; MIC [6]: 1 µg/mL; MIC80 [7]: > 32 µg/mL; hemolysis at 2 h, 50 microg/ml [13]: 72.1%; hemolysis at 1 h [16]: 38%; MIC80 [18]: 8 µg/mL; hemolysis at 2 h, 5 microg/ml [20]: 2.6%; MIC80 [21]: 4 µg/mL; Emax at 23 h [22]: 28%
CC/C(=C(\c1ccccc1)c1ccc(OCCN(C)C)cc1)c1ccccc1 [TAMOXIFEN]	–	–	–	9 (≈ 24.2 µM)	–	–	–	–	–	–	–	–	–
CC(C)(C)c1ccc(CC(N)C(=O)NC(CCCNC(=N)N)C(=O)Nc2cc(NC(=O)C(CCCNC(=N)N)NC(=O)C(N)Cc3ccc(C(C)(C)C)cc3)cc(C(N)=O)c2)cc1 (stereo not drawn)	–	–	–	–	–	> 100	3.9 (≈ 4.48 µM)	–	–	–	–	–	–
CC(C)CCOc1ccccc1-c1cccc(OCc2cn(C[C@@H](CCCCN)NC(=O)[C@@H](CCCNC(=N)N)n3cc(CC4CCCCC4)nn3)nn2)c1.Cl.Cl	2	16	4	> 32	> 32	> 32	4	8	16	8	4	≤ 0.25	MIC80 [2]: 2 µg/mL; MIC [5]: 4 µg/mL; MIC [6]: 2 µg/mL; MIC80 [7]: > 32 µg/mL; hemolysis at 2 h, 50 microg/ml [13]: 38.2%; hemolysis at 1 h [16]: 81%; MIC80 [18]: 2 µg/mL; hemolysis at 2 h, 5 microg/ml [20]: 1.4%; MIC80 [21]: 16 µg/mL; Emax at 23 h [22]: 36%
CCCCCCCCCCCCCCCC1OC2C3CC(C2O1)C(C(=O)NCCNC(=N)N)C3C(=O)NCCNC(=N)N.Cl.Cl (stereo not drawn)	–	–	–	> 50	–	–	–	–	–	–	–	–	MIC [19]: 1 µg/mL
OC(Cn1cncn1)(Cn1cncn1)c1ccc(F)cc1F [FLUCONAZOLE]	–	–	–	–	8 (≈ 26.1 µM)	–	–	–	0.125 (≈ 0.408 µM)	–	–	–	–
C[C@@H]1[C@H](O)[C@@H](C)/C=C/C=C/C=C/C=C/C=C/C=C/C=C/[C@H](O[C@@H]2O[C@H](C)[C@@H](O)[C@H](N)[C@@H]2O)C[C@@H]2O[C@](O)(C[C@@H](O)C[C@@H](O)[C@H](O)CC[C@@H](O)C[C@@H](O)CC(=O)O[C@H]1C)C[C@H](O)[C@H]2C(=O)O [AMPHOTERICIN B]	–	–	–	–	1.56 (≈ 1.69 µM)	–	–	–	1.56 (≈ 1.69 µM)	–	–	–	–
CN[C@H](CC(C)C)C(=O)N[C@H]1C(=O)N[C@@H](CC(N)=O)C(=O)N[C@H]2C(=O)N[C@H]3C(=O)N[C@H](C(=O)N[C@H](C(=O)O)c4cc(O)cc(O)c4-c4cc3ccc4O)[C@H](O)c3ccc(c(Cl)c3)Oc3cc2cc(c3O[C@@H]2O[C@H](CO)[C@@H](O)[C@H](O)[C@H]2O[C@H]2C[C@](C)(N)[C@H](O)[C@H](C)O2)Oc2ccc(cc2Cl)[C@H]1O [VANCOMYCIN]	8 (≈ 5.52 µM)	1 (≈ 0.69 µM)	> 8	–	–	–	–	> 8	–	0.5 (≈ 0.345 µM)	2 (≈ 1.38 µM)	1 (≈ 0.69 µM)	–
COLISTIN	–	–	1	–	–	–	–	–	–	–	–	–	MIC=>80 [2]: 0.25 µg/mL; MIC=>80 [7]: 0.25 µg/mL; MIC=>80 [18]: 0.125 µg/mL; MIC=>80 [21]: 0.25 µg/mL
CCCCCCCCCCCC(=O)N(CCCCCCNC(=O)[C@@H](N)CCCCN)CCCCCCNC(=O)[C@@H](N)CCCCN	–	–	3.1 (≈ 4.74 µM)	–	–	860	–	–	–	–	–	–	MIC [19]: 3.1 µg/mL (≈ 4.74 µM)

Source: ChEMBL document CHEMBL4715932, “Positional Isomers of Biphenyl Antimicrobial Peptidomimetic Amphiphiles” (ACS Med Chem Lett, 2021)
